The source of these data is patent US7615641B2, “Long chain aliphatic alcohol derivatives and methods of making and using same” (Sino Pharmaceuticals Corporation, priority 2004, dated 2009).

As a reminder, the melting point is the temperature, or range, at which the solid turns liquid.

Compound `CCCCCCCCCCCCCCCCCCCCCCCCCCCCOC(=O)c1cccnc1` [1-octacosanyl nicotinate] returned a melting point of 65 to 70 °C.

Regarding `CCCCCCCCCCCCCCCCCCCCCCCCCCCCOC(=O)c1cccnc1.Cl`, the melting point is 58 to 60 °C.
